According to US7786142B2, “Heterocyclic compounds as pSTAT3/IL-6 inhibitors” (Orchid Research Laboratories, Ltd., priority 2005, dated 2010):
“Also recorded” adds a separate entry of the source.

Assays:
NCI H460 Xenograft = test: In-vivo anti-cancer activity, NCI H460 xenograft model; set-up: species or system SCID mice; conditions: NCI H460 Xenograft model, in words
Protocol: Experiments were carried out using 6-8 week old female athymic SCID (Severe Combined Immune Deficient) mice. The mice were kept in laminar flow rooms (housed in Individually Ventilated Cages) at constant temperature and humidity. They had free access to food and water. Tumors were obtained form ATCC and maintained by s.c. passages of tumor fragments (about 2×2×2 mm) in healthy mice according to standard reported procedures. Each experimental group included six/eight mice bearing bilateral tumors. Tumors were implanted on day 0, and tumor growth was followed by biweekly measurements of tumor diameters with a Vernier caliper. Tumor Volume (TV) was calculated according to the following formula: TV (mm^3)=d^2 XD/2, where d and D are the shortest diameter and the longest diameter of the tumor, respectively. The drug treatment started when tumors were just measurable (Mean TV=150-200 mm^3).
(§1) All test compound/standard drugs were delivered by gavage in a volume of 10 ml/kg. Drugs were administered every day for single time to a period of 21 days. Control mice were treated with the drug solvent/vehicle. Tumor size is measured every alternate days and body weight is recorded daily.
(§2) • a) Tumor Volume Inhibition (TVI): A TVI value higher than 80% is indicative of active compounds. • b) T/C % is also another indicator for the activity. A reproducible 20% T/C is considered as therapeutically active. • c) Log Cell Kill (LCK): A LCK value greater than 1 is indicative of active compounds. • d) Relative Tumor Volume (RTV), Tumor Delay and % Tumor volume change are also considered as valuable additional parameters for assessment. • e) Toxic effects of drug treatment were assessed by Body Weight Loss % • f) Lethal toxicity was defined as any death in treated groups occurring before any control death. Mice were inspected daily for mortality and toxic clinical signs.

[1] = mouse, in vivo
Protocol: as §1, §2

MDAMB-231/U 251 = test: Anti-cancer screen (MTT), MDAMB-231/U 251 cells; type: cell-based; conditions: MDAMB-231/U 251, 48 hours, concentrations tested 0.01-100 μM
Outline: (§3)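 Cells (5000/well) in DMEM with 10% FBS were treated for 48 hours with 0.01, 0.1, 1, 10 and 100 μM compound in triplicate. MTT read at 570 nm gave percent growth relative to untreated controls and pre-dose T0 wells, from which GI50, TGI and LC50 were derived.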

[2] = tested on: NCIH460, HCT116, MDAMB-231/U 251; test: Anti-cancer screen, mean GI50 over the cell lines; type: cell-based
Outline: as §3

pSTAT3 = pSTAT3 inhibition (Western blot in DU 145 / SKOV-3 cells; ELISA in HepG2 cells); type: cell-based; conditions: in words; FIGS. 1 and 2
Protocol: Western blot analysis was performed as described by Kammer W et. al (J Biol Chem 271, 23634-23637, and J Biol Chem 273, 31222-31229). Briefly, 60 μg of whole cell extract was solubilized in Laemmeli buffer (50 mM Tris/HCl, pH 6.8, 2% SDS, 10% glycerol, 1 mM DTT, 1× Protease inhibitor cocktail, SET-3 (Calbiochem), 1 mM Sodium Ortho-vanadate) boiled for 5-10 minutes, and separated on a 10 or 12% acrylamide SDS gel. After protein transfer, the nitrocellulose membranes were blocked in blocking buffer for 2 hour (1×TBS, 0.1% Tween-20, 5% BSA). Membranes were incubated for 20 hours in blocking buffer containing, STAT3 P-Tyr705 (Santa Cruz Biotech), STAT3 (H-190, Santa Cruz Biotech) and Actin (C-2, Santa Cruz Biotech) antibody at 1:300 dilution. Detection was performed with HRP conjugated antimouse/antirabbit IgG (Santa Cruz Biotech) at a dilution of 1:3,000 for 1 hour. Visualization was performed using an Enhanced Chemiluminescence detection kit (Amersham). See Appended Diagrams: FIGS. 1 and 2. […]
Capture Antibody was diluted to a working concentration of 2.0 μg/mL in PBS. […] The plates were made ready after 2-3 washes with wash buffer. […] The reaction was stopped by adding 50 μl of stop solution to each well and the OD was determined using a microplate reader at 450 nm.

COc1ccc(CNC[C@H](O)COc2cccc3[nH]c4ccccc4c23)c(OC)c1 [Example 25, (2S)-1-(9H-carbazol-4-yloxy)-3-[(2,4-dimethoxybenzyl)amino]propan-2-ol]
in-vivo anti-cancer activity (NCI H460 Xenograft): good anti-cancer activity
body weight loss [1]: no body weight loss was observed
GI50 (MDAMB-231/U 251): 13 µM
IC (TGI) (MDAMB-231/U 251): 49 µM
CC50 (MDAMB-231/U 251; read-out: LC50 (the source's name)): 81 µM
GI50 [2]: 6.4 µM
pSTAT3 inhibition (pSTAT3): work through pSTAT3 inhibition; also recorded: operates through pSTAT3 inhibition
